Experimental data as given in paper PMC5644030 (Biochemistry, 2017).

Assays:
Rv3404c [1] = target: T1, Rv3404c (Mycobacterium tuberculosis, UniProt P9WKZ3)
Rv3404c [2] = target: T1, Rv3404c; remark: listed apart in the source

T1 sequence (P9WKZ3 whole entry): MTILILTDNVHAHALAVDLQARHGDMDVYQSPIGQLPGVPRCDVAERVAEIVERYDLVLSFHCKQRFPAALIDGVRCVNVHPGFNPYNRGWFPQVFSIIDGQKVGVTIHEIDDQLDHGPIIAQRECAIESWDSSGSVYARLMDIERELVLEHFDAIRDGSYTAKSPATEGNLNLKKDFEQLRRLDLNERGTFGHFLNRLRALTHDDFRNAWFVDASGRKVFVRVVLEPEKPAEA

Row | SMILES | HPLC and ESI mass spectrometry of product (Rv3404c [1]) | X-ray crystallography, 1.6 Å ternary complex (Rv3404c [2])
1 | Nc1nc2c(c(=O)[nH]1)N[C@@H](CN(C=O)c1ccc(C(=O)N[C@@H](CCC(=O)O)C(=O)O)cc1)CN2 [N10-formyl-THF] | Upon incubation of dTDP-Qui4N and N10-formyl-THF with Rv3404c, a peak was observed | 
2 | Nc1nc2c(c(=O)[nH]1)N(C=O)[C@@H](CNc1ccc(C(=O)N[C@@H](CCC(=O)O)C(=O)O)cc1)CN2 [N5-formyl-THF] |  | The structure of Rv3404c in complex with N5-formyltetrahydrofolate (N5-formyl-THF) and dTDP-Qui4N was determined
